Data on two molecules can be found in US20090264384A1, “INDOLE, BENZIMIDAZOLE, AND BENZOLACTAM BORONIC ACID COMPOUNDS, ANALOGS THEREOF AND METHODS OF USE THEREOF” (Nuada, Inc., priority 2004, published 2009).

In general, inhibition refers to the drop in the measured response relative to a control, in per cent. Read a low inhibition as a response near the control. By % Inhibition is commonly meant the drop in the measured response relative to a control, in per cent. The IC50 is the concentration needed to halve the response being measured. A low value points to inhibition by little substance.

Data set [1] concerns the target Cytochrome P450 (CYP) (Homo sapiens, UniProt P11712). In words: ADME-Tox: In vitro Metabolism (Cytochrome P450, fluorogenic substrates BFC, CEC, MFC). Conditions: Hill coefficient, CYP2C9 Inhibition (7-MFC substrate).
Data set [2] concerns the target hERG (Homo sapiens, UniProt Q12809). Briefly: ADME-Tox: QT Prolongation, HERG (patch-clamp). The settings on record: human, HEK-293 cells stably expressing HERG.
Data set [3] deals with HERG channel (Homo sapiens, UniProt Q12809). In words: ADME-Tox: QT Prolongation, HERG (patch-clamp).
Chain of HERG channel (Q12809 whole entry): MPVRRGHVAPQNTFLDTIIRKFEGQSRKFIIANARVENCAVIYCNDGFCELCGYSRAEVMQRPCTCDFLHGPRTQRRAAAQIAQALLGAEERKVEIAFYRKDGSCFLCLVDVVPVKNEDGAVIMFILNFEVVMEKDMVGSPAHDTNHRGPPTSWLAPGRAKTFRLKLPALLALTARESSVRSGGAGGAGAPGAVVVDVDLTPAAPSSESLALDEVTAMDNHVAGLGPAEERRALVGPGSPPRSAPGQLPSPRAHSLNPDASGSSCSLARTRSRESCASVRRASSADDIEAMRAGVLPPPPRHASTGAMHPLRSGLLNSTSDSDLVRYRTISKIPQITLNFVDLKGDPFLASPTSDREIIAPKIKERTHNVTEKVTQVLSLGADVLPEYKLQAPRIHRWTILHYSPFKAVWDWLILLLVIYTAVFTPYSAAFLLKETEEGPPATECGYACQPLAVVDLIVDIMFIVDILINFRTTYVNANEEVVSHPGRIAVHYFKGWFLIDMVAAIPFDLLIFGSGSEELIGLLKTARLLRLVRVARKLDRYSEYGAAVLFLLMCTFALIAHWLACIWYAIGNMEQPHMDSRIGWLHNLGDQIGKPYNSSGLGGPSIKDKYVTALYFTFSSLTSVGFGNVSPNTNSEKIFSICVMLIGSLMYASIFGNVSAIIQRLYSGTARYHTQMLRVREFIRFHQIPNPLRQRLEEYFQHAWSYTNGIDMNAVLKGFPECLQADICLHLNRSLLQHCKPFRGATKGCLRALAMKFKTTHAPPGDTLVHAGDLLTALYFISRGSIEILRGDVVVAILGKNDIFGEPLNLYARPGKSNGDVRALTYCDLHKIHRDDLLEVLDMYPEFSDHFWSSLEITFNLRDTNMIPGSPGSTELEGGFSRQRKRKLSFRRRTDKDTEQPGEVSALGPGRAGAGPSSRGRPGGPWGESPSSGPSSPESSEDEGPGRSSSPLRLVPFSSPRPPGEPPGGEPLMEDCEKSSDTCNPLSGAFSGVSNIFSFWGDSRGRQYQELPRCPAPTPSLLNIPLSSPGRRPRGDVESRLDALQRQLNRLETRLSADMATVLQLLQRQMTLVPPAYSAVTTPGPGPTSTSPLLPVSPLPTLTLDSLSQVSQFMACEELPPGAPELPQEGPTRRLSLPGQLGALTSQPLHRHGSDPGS
Data set [4] in a line: Solubility when preparing the topical solution. The format is physicochemical. As to the method:
(§1) An aliquot of a representative presently disclosed compound was stored in an amber glass vial and stored at 25° C. […] 0.1 mL of this solution was diluted into 0.9 mL 190 proof alcohol to prepare a 0.5% solution.

For data set [5], the system named is arachidonic acid-induced ear edema. In words: Arachidonic acid-induced mouse ear edema model. Type of data set: in vivo. Conditions: for inhibition of the irritant-induced ear edema: thirty minutes prior to arachidonic acid challenge; for Change in Ear Weight (mg) Average / % Inhibition / Ear Weight (mg) Left (−AA) / Ear Weight (mg) Right (+AA): topical; for % Inhibition: change in ear weight vs vehicle; for Ear Weight (mg) Left (−AA) / Ear Weight (mg) Right (+AA): individual mice. As to the method: This example was carried out in male BALB/c mice. 42 BALB/c mice (Harlan Sprague-Dawley, Inc., male, PO # 452036, R #2449, 5-6 weeks) were received, individually examined, and housed in four cages of ten mice each and one cage containing two mice. Each animal was in apparent good health: no clinical signs of disease or distress. The animals were placed in quarantine with daily inspections.
as §1
30 mg indomethacin (Sigma Cat. I-7378, lot 60K0745) was dissolved in 5 ml 0.1 M NaHCO3 to prepare a 6 mg/mL solution.
48.9 μL arachidonic acid (Sigma Cat. A-9673. lot 057K1620) was dissolved in 450 μL 190 proof alcohol to prepare a 100 mg/mL solution.
The mice were numbered and weighed. The mice in Groups 1, 3, 4 were topically treated on both sides of both ears with either 25 μL 190 proof alcohol, 5% 5-(2-(4-Methoxyphenyl)-1H-benzo[d]imidazol-1-yl)pentylboronic acid, or 0.5% 5-(2-(4-Methoxyphenyl)-1H-benzo[d]imidazol-1-yl)pentylboronic acid. The mice in Group 2 were injected intraperitoneally with 5 mL/kg indomethacin (30 mg/kg). Thirty minutes after 190 proof alcohol, indomethacin, or 5-(2-(4-Methoxyphenyl)-1H-benzo[d]imidazol-1-yl)pentylboronic acid application/administration, 5 μL of the arachidonic acid solution was applied to the dorsal and ventral sides of the right ear. The contralateral ear was treated with 190 proof alcohol. One hour after alcohol/arachidonic acid application, the mice were euthanized, the ears removed and the ear weights recorded.
Significance (p-value) was calculated using Student's T-test. The effect of prophylactic topical treatment with a representative presently disclosed compound on arachidonic acid-induced murine ear edema is shown in FIG. 16.

The test system of data set [6] is TNF-α production by PMBC. In words: Inhibition of TNF-α Production By Peripheral Blood Monocyte Cells (PMBC), LPS stimulated. The format is cell-based. Conditions: 1 ug/mL LPS, 24 hours. As to the method:
PMBC in RPMI 1640 Cell Culture Medium (containing 1% Penicillin and 1% Streptomycin) are aliquoted into 96-well plates at 5×10^5 cells/well and pre-incubated with test compounds for 30 minutes at 37° C. After incubation, 1 ug/mL LPS is added to each well to stimulate TNF-α production and the plate is incubated for 24 hours at 37° C. After incubation, the supernatant is removed and the TNF-α secreted is quantified using EIA detection kits commercially available from R&D Systems (USA). The results from this assay are expressed as percent inhibition of control activity, with the control being stimulated wells with no test compound. Dexamethasone is used as a standard reference compound in the assay and is tested with each experiment. All test compounds are diluted from 10 mM stock solutions in 100% DMSO.

Data set [7] concerns the target T1, phosphodiesterase (Homo sapiens, UniProt O76074).
T1 construct: IC50; other: Phosphodiesterase 5 (h); nH; other: Hill coefficient, Phosphodiesterase 5 (h)
In words: In vitro phosphodiesterase enzyme assays of Example 39 (IC50 determination). The format is biochemical. As to the method: (§2) The in vitro pharmacology of 5-(2-(4-Methoxyphenyl)-1H-benzo[d]imidazol-1-yl)pentylboronic acid was determined with several enzymes as described in Table 19 using the experimental conditions of Table 18.
(§3) Results. The corresponding inhibition curves were also determined (data not shown). Each is within accepted limits of the historic average ±0.5 log units. Table 21 contains the mean experimental values for the […] as performed as described above.

For data set [8], the target named is T2, phosphodiesterase (Homo sapiens, UniProt O00408).
T2 construct: IC50; other: Phosphodiesterase 2 (h); nH; other: Hill coefficient, Phosphodiesterase 2 (h)
T2 sequence (O00408 whole entry): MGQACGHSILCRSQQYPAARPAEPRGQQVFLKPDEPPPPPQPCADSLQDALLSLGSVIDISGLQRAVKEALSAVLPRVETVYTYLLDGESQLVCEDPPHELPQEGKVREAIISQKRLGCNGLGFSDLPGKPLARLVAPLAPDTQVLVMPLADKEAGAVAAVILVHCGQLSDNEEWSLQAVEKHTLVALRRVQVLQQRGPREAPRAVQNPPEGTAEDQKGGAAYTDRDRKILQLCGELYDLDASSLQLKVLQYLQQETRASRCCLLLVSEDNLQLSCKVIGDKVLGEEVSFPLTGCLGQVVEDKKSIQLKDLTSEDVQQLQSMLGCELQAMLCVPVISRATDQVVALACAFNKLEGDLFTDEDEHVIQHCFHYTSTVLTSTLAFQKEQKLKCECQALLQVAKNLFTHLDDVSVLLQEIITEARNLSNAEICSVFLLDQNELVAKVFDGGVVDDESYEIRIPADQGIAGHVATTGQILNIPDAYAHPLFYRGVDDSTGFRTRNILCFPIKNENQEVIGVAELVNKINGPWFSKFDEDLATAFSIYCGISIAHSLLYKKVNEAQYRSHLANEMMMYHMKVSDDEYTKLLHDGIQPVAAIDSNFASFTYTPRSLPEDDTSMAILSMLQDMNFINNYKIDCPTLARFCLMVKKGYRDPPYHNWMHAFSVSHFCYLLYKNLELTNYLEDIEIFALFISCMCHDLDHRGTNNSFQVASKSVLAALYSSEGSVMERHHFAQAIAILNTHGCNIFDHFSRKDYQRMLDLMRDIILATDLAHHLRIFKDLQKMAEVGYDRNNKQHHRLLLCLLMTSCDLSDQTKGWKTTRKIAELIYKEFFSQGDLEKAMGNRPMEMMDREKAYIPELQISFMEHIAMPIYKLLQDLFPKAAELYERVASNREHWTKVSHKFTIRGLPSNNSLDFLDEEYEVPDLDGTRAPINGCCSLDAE
The description is as above. Type of data set: biochemical. How it is done:
as §2, §3

The target in data set [9] is T3, phosphodiesterase.
T3 construct: IC50; other: Phosphodiesterase 4 (h); nH; other: Hill coefficient, Phosphodiesterase 4 (h)
The description is as above. The format is biochemical. The settings on record: Phosphodiesterase 4 (h). How it is done: as §2, §3

The target of data set [10] is T4, phosphodiesterase (Bos taurus, UniProt P11541+P23439).
T4 construct: IC50; other: Phosphodiesterase 6 (bovine retina); nH; other: Hill coefficient, Phosphodiesterase 6
T4 sequence (P11541 2-856): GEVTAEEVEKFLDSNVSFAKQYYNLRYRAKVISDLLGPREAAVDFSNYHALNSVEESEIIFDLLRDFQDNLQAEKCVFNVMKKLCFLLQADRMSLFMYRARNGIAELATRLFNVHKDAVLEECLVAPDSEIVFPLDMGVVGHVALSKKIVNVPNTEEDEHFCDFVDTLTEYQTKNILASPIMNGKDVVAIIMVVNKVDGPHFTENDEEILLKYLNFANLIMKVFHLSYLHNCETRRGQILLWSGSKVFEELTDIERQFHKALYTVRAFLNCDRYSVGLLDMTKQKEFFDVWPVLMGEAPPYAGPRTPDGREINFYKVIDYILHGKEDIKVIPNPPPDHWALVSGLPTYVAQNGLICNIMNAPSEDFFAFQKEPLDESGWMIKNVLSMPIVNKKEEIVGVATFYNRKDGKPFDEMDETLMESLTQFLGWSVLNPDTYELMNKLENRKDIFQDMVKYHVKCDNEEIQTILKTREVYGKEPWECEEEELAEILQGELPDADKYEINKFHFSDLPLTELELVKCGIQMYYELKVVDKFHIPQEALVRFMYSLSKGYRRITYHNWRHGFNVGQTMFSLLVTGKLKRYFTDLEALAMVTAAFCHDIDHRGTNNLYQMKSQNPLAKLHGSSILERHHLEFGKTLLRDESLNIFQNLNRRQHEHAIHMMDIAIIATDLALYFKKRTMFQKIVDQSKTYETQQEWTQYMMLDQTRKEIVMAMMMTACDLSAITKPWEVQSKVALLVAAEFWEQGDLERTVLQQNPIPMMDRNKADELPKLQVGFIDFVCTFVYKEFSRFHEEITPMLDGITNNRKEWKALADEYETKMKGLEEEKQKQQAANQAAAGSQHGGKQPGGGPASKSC
T4 sequence (P23439 2-850): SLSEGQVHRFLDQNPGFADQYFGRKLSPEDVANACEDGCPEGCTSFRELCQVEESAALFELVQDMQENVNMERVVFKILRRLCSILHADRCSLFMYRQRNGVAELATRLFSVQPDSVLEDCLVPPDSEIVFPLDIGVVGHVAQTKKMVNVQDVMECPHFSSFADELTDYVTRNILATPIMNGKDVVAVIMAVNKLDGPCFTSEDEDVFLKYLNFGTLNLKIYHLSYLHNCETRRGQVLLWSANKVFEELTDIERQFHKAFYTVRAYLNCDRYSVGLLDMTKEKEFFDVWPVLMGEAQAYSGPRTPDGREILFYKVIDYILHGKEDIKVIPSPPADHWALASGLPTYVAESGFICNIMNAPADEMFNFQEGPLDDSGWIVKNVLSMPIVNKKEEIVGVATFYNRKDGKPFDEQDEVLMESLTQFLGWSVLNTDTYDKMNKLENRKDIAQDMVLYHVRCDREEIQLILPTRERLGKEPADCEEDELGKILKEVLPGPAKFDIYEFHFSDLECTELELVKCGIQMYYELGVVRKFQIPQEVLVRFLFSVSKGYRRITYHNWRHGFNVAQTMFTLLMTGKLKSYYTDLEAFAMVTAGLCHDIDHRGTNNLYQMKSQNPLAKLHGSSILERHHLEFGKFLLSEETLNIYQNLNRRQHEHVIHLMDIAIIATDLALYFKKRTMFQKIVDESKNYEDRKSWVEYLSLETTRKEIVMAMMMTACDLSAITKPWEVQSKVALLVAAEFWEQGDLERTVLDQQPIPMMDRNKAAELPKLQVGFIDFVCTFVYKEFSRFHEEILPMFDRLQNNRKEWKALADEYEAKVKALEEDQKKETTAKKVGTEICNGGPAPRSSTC
T4 sequence (P04972 whole entry partner): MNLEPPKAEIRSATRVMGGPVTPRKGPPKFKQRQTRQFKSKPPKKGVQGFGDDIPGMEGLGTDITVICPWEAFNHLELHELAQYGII
The description is as above. Type of data set: biochemical. The settings on record: Hill coefficient, Phosphodiesterase 6. How it is done:
as §2, §3

Where “and” joins values, the source holds several entries; their conditions need not be identical. Equal entries are not always repeated.

Chain of hERG (Q12809 whole entry): as the sequence (Q12809 whole entry) above

As to `Nc1ccc(S(=O)(=O)Nc2ccnn2-c2ccccc2)cc1` [sulfaphenazole], the nH in [1] came out at 1.0.
The molecule `COc1ccc(-c2nc3ccccc3n2CCCCCB(O)O)cc1` [Example 7, 5-(2-(4-Methoxyphenyl)-1H-benzo[d]imidazol-1-yl)pentylboronic acid] showed an inhibition at 1 µM in data set [2] of 49.7%. In addition, the “Potency Ranking” value in [3] (HERG-channel blocker ranking, from 1 μM test (Table 21)) is recorded as “Moderate/High”. Besides, in data set [3] (general potency ranking system (Roche et al.)), the “HERG-channel blocker potency class” value was “moderate/high”. In addition, the solubility in acetone entry in data set [4] was “not soluble in acetone”. The “inhibition of the irritant-induced ear edema” value is listed as 12% in [5] (0.5% solution topical) and 46% in data set [5] (5% solution topical). Moreover, the “Change in Ear Weight (mg) Average” value came to 44.1 mg in [5] (0.5%) and 26.9 mg in data set [5] (5%). For the same molecule, the results for the “% Inhibition” value in [5] (0.5%) and in data set [5] (5%) were 12.2% and 46.4%, respectively. The “Ear Weight (mg) Left (−AA)” value in data set [5] (0.5%) is 22 mg (2×) and 20 mg (4×) and 34 mg and 23 mg and 24 mg and 21 mg; in data set [5] (5%) it was 23 mg (3×) and 24 mg (2×) and 22 mg (3×) and 20 mg and 21 mg. In addition, the “Ear Weight (mg) Right (+AA)” value was 76 mg and 63 mg and 55 mg and 82 mg and 78 mg and 50 mg and 62 mg and 77 mg and 60 mg and 64 mg in data set [5] (0.5%); 50 mg and 48 mg and 57 mg and 42 mg and 55 mg and 51 mg and 53 mg and 49 mg and 44 mg (2×) in data set [5] (5%). Further, the IC50 in [6] came to 200 nM; in [7] (Phosphodiesterase 5 (h)), 960 nM; in [8] (Phosphodiesterase 2 (h)), 110 nM; in [9], 420 nM. Moreover, the nH is 0.7 in data set [7] (Hill coefficient, Phosphodiesterase 5(h)); 0.8 in [8] (Hill coefficient, Phosphodiesterase 2(h)); 0.9 in data set [10].
